Results on 1 compound are retold here after US5534495A, “Treatment of non-HIV neuropathic pain syndromes” (Advanced Peptides and Biotechnology Sciences, priority 1995, dated 1996).

Test [1] relates to dissociated hippocampal and/or cortical neurons. Nature of the test: Neuronal survival assay in vitro (5-day exposure). Type of test: cell-based, rat. As to the method: (§1) The neuroprotective and neurotropic actions of the herein defined peptides were determined by their effects upon fetal rodent neuronal cultures. […] The dissociated cells were be plated at low density (50,000 cells/35-mm dish) upon confluent layers of astrocytes. The astrocyte feeder layers were prepared from the hippocampi and/or cortices of 2-day-old rat pups. Following treatment with 0,125% trypsin for 15 min, the tissue was triturated and plated at 2.5×10^5 cells into 35-mm tissue culture dishes coated with Vintrogen (Collagen, Palo Alto) and poly-L-lysine (M1 30-70K 10^-5 M borate, pH 8.4, Sigma). The resulting feeder layers were grown in Eagle's minimal essential medium (MEM, formula 82-0234, Gibco) with 10% fetal bovine serum until confluent (12-14 days); feeder layers prepared in this way were devoid of neurons and consisted predominantly of flat cells that were stained by antibodies to glia fibrillary acidic protein. When hippocampal and/or cortical neurons were added to the confluent feeder cultures, the medium was changed to 94% MEM, 5% horse serum (Gibco) and an added nutrient supplement containing insulin, transferrin, putrescine, selenium, corticosterone, progesterone and triiodothyronine. The resulting mixed neuron/glia cultures are treated one day after plating with 5'-fluoro-2'-deoxyuridine (15 μg/ml plus uridine, 35Mg/ml) to suppress the overgrowth of background cells. The neuronal cultures were allowed to grow for one week prior to the beginning of the experimental period and the medium was changed prior to adding peptides or controls.
The test period of exposure to peptides was five days long, a period in which cell survivability can be accurately quantitated. […] Neurons were counted in 100 fields at predetermined stage coordinates. Cultures were coded and counted in a blinded fashion without knowledge of sample treatment. The total area counted was 50 mm^2. […] The maximum effect was detected at 0.1 nM, with approximately a 25% increase in cell survival compared to vehicle (Control) treated cultures.

Test [2] deals with hippocampal neuronal cells. The experiment in a line: Twenty one day survival of hippocampal neuronal cell cultures. The format is cell-based, rat. The following applies: 0.1 nM. As to the method:
as §1, with “The resulting mixed neuron/glia cultures are treated one day after plating with 5'-fluoro-2'-deoxyuridine (15 μg/ml plus uridine, 35Mg/ml) to suppress the overgrowth of background cells. The neuronal cultures were allowed to grow for one week prior to the beginning of the experimental period and the medium was changed prior to adding peptides or controls.” left out

Take `C[C@@H](N)C(=O)N[C@@H](CO)C(=O)N[C@H](C(=O)N[C@H](C(=O)N[C@H](C(=O)N[C@@H](CC(N)=O)C(=O)N[C@@H](Cc1ccc(O)cc1)C(=O)N[C@H](C(N)=O)[C@@H](C)O)[C@@H](C)O)[C@@H](C)O)[C@@H](C)O` [DAPTA]: the “effect on neuronal survival (neuronal cell count as percentage of Control)” value in test [1] (7-day-old neuronal cultures, five days exposure, vs vehicle control, FIG. 1) was “caused an increase in neuronal survival”. Moreover, the “increase in cell survival compared to vehicle (Control) treated cultures” value in test [1] (at 0.1 nM (maximum effect), five days) is recorded as ~25%. Moreover, the “concentration of maximum effect on neuronal survival” value in test [1] (five days exposure, FIG. 1) is 0.1 nM. The “increase in cell survival compared to vehicle treated cultures” value in test [2] (after twenty one days, FIG. 2) is recorded as 4 fold. The “cell survival rate over the test period” value in test [2] (at all times during the twenty one day test period, vs vehicle) is “enhanced”.
